In assay [1] the target is A-Raf kinase (SEQ. ID No: 1) (Homo sapiens (Human), UniProt P10398, Y301D/Y302D). Put plainly: Biochemical Assay for A-Raf (1). As to conditions: Table J, assay version (1); read-out: ARAF (1) IC50. A digest of the protocol:
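A-Raf Y301D/Y302D at 5.55 nM phosphorylates 30.1 nM MEK with 1 mM ATP in pH 7.5 Tris buffer, 1% DMSO. Activity was read continuously as NADH oxidation at 340 nm in a pyruvate kinase/lactate dehydrogenase coupled system for 6 h at 30 °C. Rates from 4–5 h were converted to percent inhibition, and IC50 came from a four-parameter fit.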

For the next assay, the system named is A375 cells. Put plainly: A375 Cell Proliferation Assay (1). Type of assay: cell-based. As to conditions: Homo sapiens, A-375. A digest of the protocol:
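Resazurin fluorescence (excitation 540 nm, emission 600 nm, after a further 5-6 h) gave IC50s from triplicate compound dilution series.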

The test system of the next assay is WM3928 cells. Description: WM3928 Cell Proliferation Assay (1). It is filed as cell-based. The procedure, abridged:
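IC50 was derived from resazurin fluorescence (ex 540, em 600 nm) after a 6–7 h dye incubation. Before that, cells had 67–72 h of compound exposure at 37 °C, 5% CO2.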

In the next assay the test system is Miapaca-2 cells. Description: MiaPaca-2 Cell Proliferation Assay (1). Type of assay: cell-based. Conditions: Homo sapiens, MIA PaCa-2, single agent, read-out: MiaPaca2 (1) IC50. A digest of the protocol: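 Resazurin was added after compound exposure and incubated 5-6 h, then fluorescence read at 540 nm excitation and 600 nm emission to give IC50.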

SMILES strings stand for the structures. Where only a bound is given, the exact number is not on record here.

A-Raf kinase (SEQ. ID No: 1), sequence (P10398 other isoform, or with tags, fused parts or gaps Y301D (already in the parent)/Y302D (already in the parent)): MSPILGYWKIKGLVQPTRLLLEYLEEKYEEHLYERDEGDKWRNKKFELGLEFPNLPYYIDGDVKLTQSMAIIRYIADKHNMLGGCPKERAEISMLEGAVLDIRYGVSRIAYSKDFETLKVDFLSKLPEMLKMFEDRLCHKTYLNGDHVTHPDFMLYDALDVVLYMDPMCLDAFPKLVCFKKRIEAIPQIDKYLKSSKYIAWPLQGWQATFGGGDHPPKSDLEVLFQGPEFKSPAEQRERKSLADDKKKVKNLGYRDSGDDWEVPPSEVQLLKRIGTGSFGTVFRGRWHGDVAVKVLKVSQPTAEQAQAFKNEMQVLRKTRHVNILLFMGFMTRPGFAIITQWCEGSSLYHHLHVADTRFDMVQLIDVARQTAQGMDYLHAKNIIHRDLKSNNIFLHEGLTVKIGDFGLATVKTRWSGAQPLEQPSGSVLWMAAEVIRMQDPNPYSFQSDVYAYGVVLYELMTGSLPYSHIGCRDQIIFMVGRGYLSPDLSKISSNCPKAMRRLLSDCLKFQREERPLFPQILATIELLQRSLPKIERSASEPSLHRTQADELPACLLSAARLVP

As for `CNC(=O)c1cc(-c2cc(-c3cc(NC(=O)c4ccnc(C(C)(C)OC)c4)ccc3C)ccn2)ccn1` [Example 264], the IC50 in assay [1] was 1 to 10 µM; with A375 cells, not above 0.1 µM; with WM3928 cells, not above 0.1 µM; in the assay on Miapaca-2 cells, 1 to 10 µM.

For the compound `Cc1ccc(NC(=O)c2ccnc(C(C)(C)C#N)c2)cc1-c1cncc(-c2cc(NC(=O)C3CC3)ncn2)c1` [Example 224], the IC50 is 0.5 to 1 µM in assay [1], not above 0.1 µM in the assay with A375 cells, not above 0.1 µM with WM3928 cells and 0.1 to 0.5 µM in the assay on Miapaca-2 cells.

With `Cc1ccc(NC(=O)c2ccnc(C(C)(C)C#N)c2)cc1-c1cccc(-c2cc(N)ncn2)c1` [Example 267], the IC50 in assay [1] is 1 to 10 µM; in the assay on A375 cells, 0.1 to 0.5 µM; with WM3928 cells it was 0.1 to 0.5 µM; in the assay on Miapaca-2 cells, 1 to 10 µM.

Take `Cc1ncc(NC(=O)c2ccnc(C(C)(C)C#N)c2)cc1-c1cc(-c2cc(NC(=O)C3CC3)ncn2)cc(C2CC2)c1` [Example 218]: the half-maximal inhibitory concentration (IC50) was 1 to 10 µM in assay [1], not above 0.1 µM in the assay on A375 cells, not above 0.1 µM in the assay on WM3928 cells and 1 to 10 µM in the assay on Miapaca-2 cells.

Consider `Cc1ccc(NC(=O)c2cnnc(C3CC3)c2)cc1-c1ccnc(-c2ccnc(NC(=O)C3CC3)c2)n1` [Example 250], for which the IC50 in assay [1] lay in the range of 1 to 10 µM; in the assay on A375 cells, 0.1 to 0.5 µM; in the assay with WM3928 cells, 0.1 to 0.5 µM; with Miapaca-2 cells, 1 to 10 µM.

On to `CNC(=O)c1cc(-c2cc(-c3cc(NC(=O)c4cnnc(C5CC5)c4)ccc3C)ccn2)ccn1` [Example 215], for which the IC50 in assay [1] is 1 to 10 µM; in the assay with A375 cells, 0.5 to 1 µM; in the assay with WM3928 cells, 0.5 to 1 µM; in the assay with Miapaca-2 cells, 1 to 10 µM.

On to `Cc1ccc(NC(=O)c2ccnc(C(C)(C)F)c2)cc1-c1ccnc(-c2ccnc(NC(=O)C3CC3)c2)n1` [Example 186], for which the IC50 in assay [1] is 0.5 to 1 µM; in the assay on A375 cells it was not above 0.1 µM; with WM3928 cells it was not above 0.1 µM; in the assay on Miapaca-2 cells, 1 to 10 µM.

Turning to `Cc1ncc(NC(=O)c2cnnc(C3CC3)c2)cc1-c1ccnc(-c2ccnc(NC(=O)C3CC3)c2)c1` [Example 254], the IC50 (in assay [1]; with A375 cells; in the assay on WM3928 cells; in the assay on Miapaca-2 cells) was 1 to 10 µM each time.

A word on the IC50: it is the concentration that gives 50% inhibition.

The values above are taken from US12319655B2, “RAF kinase inhibitors and methods of use thereof” (Deciphera Pharmaceuticals, LLC, priority 2021, dated 2025).
